The record followed here is patent publication US6617332B1, “Tan-1057 derivatives” (Bayer Aktiengesellschaft, priority 1998, dated 2003).

In brackets after ≈: the same amount, converted by molar mass. Read-outs that look alike come from different tables or passages of the source.

Data set [1] can be described thus: Neutral Red vitality test using J774.A1 cells. It is filed as cell-based, murine. As to conditions: mouse; J774.A1 murine macrophage cells, 72 hours with substance; vitality reduced to 50% of untreated control. The protocol:
(§1) Compatibility tests of the exemplary compounds were carried out using cultures of eukaryotic cells. Hepatocytes (HepG2) and murine macrophage cells (J774.A1) were used as indicator for organ-specific toxicity. The murine macrophage cell line used is a particularly sensitive indicator for toxic effects.
(§2) In each case 1.2×10^4 cells were incubated at 37° C. for 24 hours. Test substances were added at different concentrations, and the cells were incubated for another 72 hours. The cells were then treated with 50 μl of Neutral Red solution (Sigma, No. N 2889) for 2 hours, washed with PBS medium and denaturated using an ethanol/glacial acetic acid mixture.
(§3) The cultures were measured in an Elisa reader at 540 nm and 630 nm. The IC50 values were extrapolated and indicate at which concentration the vitality of the cells, measured by the uptake of Neutral Red, is reduced to 50%, compared to untreated control cells.

The subject of data set [2] is J774.A1 cells. The data set is described as follows: Neutral Red vitality test using J774.A1 cells. As to conditions: compatibility tests with eukaryotic cells: hepatocytes (HepG2) and murine macrophage cells (J774.A1). It is filed as cell-based, murine. As for the experimental part:
as §1, §2, §3

The test system of data set [3] is S. aureus 133. Briefly: Determination of the minimum inhibitory concentration (MIC), liquid dilution test. The data set is classed as cell-based. The note with it: Staphylococcus aureus. As for the experimental part:
(§4) The MIC was determined using the liquid dilution test. Overnight cultures of the test germs (S. aureus 133) in Isosensitest bouillon were diluted 1:1000 with foetal calf serum (FCS) or Isosensitest bouillon and incubated with dilutions of the test substances (successive dilutions of 1:2).
The cultures were incubated at 37° C. for 18-24 hours. In each case the lowest concentration of substance at which no visible bacterial growth took place, was defined as MIC.

In data set [4] the test system is TAN 1057 A,B-resistant S. aureus 133. The data set is described as follows: MIC test with TAN 1057 A,B-resistant isolates from stepwise selection. It is filed as cell-based. The note with it: Staphylococcus aureus. As for the experimental part:
as §4
Bacteria of the strain S. aureus 133 were incubated with different concentrations of TAN 1057 A,B for 24 hours. […] This process was repeated for several days, selecting step by step bacteria having increased resistance to TAN 1057 A,B. The MIC of highly resistant S. aureus 133 bacteria was >100 μg/ml (initial MIC: <0.1 μg/ml). The bacteria from this selection series, having an MIC of <0.1, 0.8, 25, 100 and >100 μg/ml, were used for tests. It is thus possible to identify TAN 1057 A,B derivatives having antibacterial activity against TAN 1057 A,B-resistant cells.
The S. aureus 133 isolates with medium and high resistance to TAN 1057 A,B were tested in comparison to the derivatives of the invention.

Data set [5] has as its system α2-macroglobulin secretion of HepG2 cells. The data set is described as follows: Functionality of HepG2 cells: secretion of α2-macroglobulin (ELISA). As to conditions: human, HepG2 liver cells, HepG2, 40-48 hours, highest test concentration 10 μg/ml. The data set is classed as cell-based. As for the experimental part: The vitality and functionality of human HepG2 liver cells were examined after treatment with exemplary compounds. In each case 2×10^4−1×10^5 cells were incubated in RPMI 1640 (Whittacker) with 10% heat-inactivated foetal calf serum (Gibco) at 37° C. for 40-48 hours. The incubation volume of 200 μl contained the test substances in concentrations of 10, 2 and 0.4 μg/ml.
The functionality of the HepG2 cells was examined by measuring the secretion of apo B100 and α2-macroglobulin after treatment. To this end, the protein content of the culture supernatants was determined by ELISA after incubation for 40-48 hours. Apo B100 was bound using rabbit ahLDL (1 mg/ml) and quantified using peroxidase-conjugated monoclonal antibodies (ahLDL_POD), with addition of the substrate TMB/H2O2. The optical density was measured at 450 nm.
To determine α2-macroglobulin, the ELISA system from Biodesign (Art.No. H 45205M) was used. Quantification was likewise carried out using the substrate TMB/H2O2, and measuring the optical density at 450 nm.
In general terms: In an ELISA, binding on a coated surface is turned into a signal by an enzyme label.

Data set [6] concerns S. aureus 133. Briefly: Test of antibacterial activity in vivo (infected mice, survival). As to conditions: mice infected i.p. with 1×10^6 S. aureus 133 in 5% mucine; intravenous administration 30 minutes after infection. The protocol: Mice were infected with 1×10^6 bacteria of the strain S. aureus 133 in 5% mucine (i.p.) and treated by intravenous administration of the test substances 30 minutes after the infection. Without treatment, all infected animals died. The therapeutic doses for TAN 1057 A,B and the compound of Example 4 at which all infected animals survived (=ED100) was 1 mg/kg for both substances.

Data set [7] can be described thus: Acute toxicity in mice (LD50). The note with it: mouse, in vivo, ip, intraperitoneal administration, dose at which 50% of treated mice survive. As for the experimental part:
The acute toxicity of the substances was determined by determining the dose at which 50% of the treated mice survive (=LD50). Following intraperitoneal administration of the test substances, the LD50 for TAN 1057 A,B was 100 mg/kg. The LD50 for the compound of Example 4 was >400 mg/kg.

The term IC50 denotes the concentration that gives 50% inhibition. As usually defined, the MIC is the least concentration at which growth counts as inhibited. What is called LD50 is the dose expected to kill half of the subjects tested. In data set [1], `CN(C(=O)C[C@@H](N)CNC(=N)N)C1CNC(NC(N)=O)=NC1=O` (stereo partly drawn) [TAN 1057 A,B, reference compound] yielded a half-inhibitory concentration (IC50) at 72 h of 0.25 µg/mL (≈ 0.764 µM). Moreover, the “toxicity (in words)” value in data set [2] was “pronounced toxicity in the liver and cells of the immune system”. The MIC in data set [3] (S. aureus 133, overnight culture diluted 1:1000 with foetal calf serum, 37° C., 18-24 hours, lowest concentration without visible growth, read-out: MIC in FCS (S.aureus; μg/ml)) is 0.1 µg/mL (≈ 0.305 µM); in data set [3] (S. aureus 133 before selection with TAN 1057 A,B, read-out: initial MIC), less than 0.1 µg/mL; in data set [4] (read-out: MIC of highly resistant S. aureus 133 bacteria), greater than 100 µg/mL; in data set [4] (read-out: MIC, isolate with medium resistance to TAN 1057 A,B) it was 0.8 µg/mL (≈ 2.44 µM). The same compound came in with a half-inhibitory concentration (IC50) in data set [5] of 7 µg/mL (≈ 21.4 µM). In data set [6], the “ED100 (therapeutic dose at which all infected animals survived)” value is reported as 1 mg/kg. Further, the LD50 in data set [7] is 100 mg/kg.
